This experiment addresses PRMT5 (Homo sapiens (Human), UniProt O14744). The experiment in a line: In vitro evaluation of kinase activity (PRMT5 enzymatic assay, [3H]-SAM FlashPlate). The format is biochemical. The following applies: polypeptide substrate H4(1-21)S1ac 100 nM, [3H]-SAM 250 nM, 25° C., 60 min; read-out: Enzyme IC50 PRMT5. Here is the method: Compounds: the compounds of the present invention prepared in the above examples. Each compound was formulated into a 10 mM stock solution with DMSO, and finally diluted into 10 concentrations for detection, with the final concentrations being 10000.00 nM, 3333.33 nM, 1111.11 nM, 370.37 nM, 123.46 nM, 41.15 nM, 13.72 nM, 4.57 nM, 1.52 nM, and 0.51 nM.
Reagents and consumables: PRMTS, purchased from Active Motif, Cat. No. 31921; polypeptide substrate H4(1-21)S1ac, purchased from Gill Biochemical (Shanghai) Co., Ltd., Cat. No. 342095; [^3H]-SAM, purchased From PerkinElmer, Cat. No. NET155V001MC; SAM, purchased from Sigma, Cat. No. A7007-100MG; SAH, purchased from Sigma, Cat. No. A9384-25MG; DTT, purchased from Sangon Bioengineering (Shanghai) Co., Ltd., Cat. No. A620058-0005. Corning-3657, purchased from Corning, Cat. No. 3657; Echo Qualified 384-Well, purchased from Labcyte, Cat. No. P-05525; FlashPlate, purchased from Perkin Elmer, Cat. No. SMP410J001PK.
2.1. Preparation of reaction buffer and reaction stop solution: the composition of 1× reaction buffer was 10 mM Tris-HCl, pH 8.0; 0.01% Tween-20; and 1 mM DTT. The composition of the reaction stop solution was 125 μM […] solution.
The compounds were dissolved in 100% DMSO to prepare 10 mM stock solutions and then diluted to desired concentrations on an Echo 384 well plate.
250 nL of the compounds diluted above were transferred from the Echo 384 well plate to a 384 well reaction plate using the Echo550 instrument.
PRMT5 was added to 1× reaction buffer to form 1.67× enzyme solution.
The polypeptide substrate and [^3H]-SAM were added to 1× reaction buffer to form 2.5× substrate solution (the final concentrations were 100 nM and 250 nM, respectively).
15 μL of 1.67× enzyme solution was added to the wells of a 384 well reaction plate. For control wells without enzymatic activity, the enzyme solution was replaced with 15 μL of 1× reaction buffer. The plate was centrifuged at 1000 rpm for 1 min and incubated at room temperature for 15 min. […]

Experimental findings from US20240116918A1, “SUBSTITUTED TRICYCLIC COMPOUND AS PRMT5 INHIBITOR AND USE THEREOF” (NANJING SANHOME PHARMACEUTICAL CO., LTD., priority 2019, published 2024) are described below.

As a reminder, the IC50 is the concentration that gives 50% inhibition.

Molecules are shown by their SMILES.

Sequence of PRMT5 (O14744 whole entry): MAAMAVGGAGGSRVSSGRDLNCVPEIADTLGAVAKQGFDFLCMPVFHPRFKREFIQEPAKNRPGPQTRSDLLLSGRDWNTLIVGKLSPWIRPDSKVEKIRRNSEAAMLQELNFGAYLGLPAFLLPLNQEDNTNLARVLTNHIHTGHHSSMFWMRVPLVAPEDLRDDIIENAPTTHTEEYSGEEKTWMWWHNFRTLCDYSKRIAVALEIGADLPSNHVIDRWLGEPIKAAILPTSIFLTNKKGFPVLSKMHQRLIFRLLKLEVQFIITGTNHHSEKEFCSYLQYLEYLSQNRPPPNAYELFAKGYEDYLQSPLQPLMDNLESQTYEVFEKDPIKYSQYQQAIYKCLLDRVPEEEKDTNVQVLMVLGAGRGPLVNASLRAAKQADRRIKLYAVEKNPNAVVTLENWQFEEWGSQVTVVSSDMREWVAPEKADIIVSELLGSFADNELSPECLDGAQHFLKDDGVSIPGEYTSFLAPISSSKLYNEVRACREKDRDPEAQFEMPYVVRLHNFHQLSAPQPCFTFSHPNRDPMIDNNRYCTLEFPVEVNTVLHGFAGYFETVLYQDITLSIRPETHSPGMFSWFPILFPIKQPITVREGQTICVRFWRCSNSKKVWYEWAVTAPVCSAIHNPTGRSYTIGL
Sequence of PRMT5 (Q9BQA1 whole entry partner): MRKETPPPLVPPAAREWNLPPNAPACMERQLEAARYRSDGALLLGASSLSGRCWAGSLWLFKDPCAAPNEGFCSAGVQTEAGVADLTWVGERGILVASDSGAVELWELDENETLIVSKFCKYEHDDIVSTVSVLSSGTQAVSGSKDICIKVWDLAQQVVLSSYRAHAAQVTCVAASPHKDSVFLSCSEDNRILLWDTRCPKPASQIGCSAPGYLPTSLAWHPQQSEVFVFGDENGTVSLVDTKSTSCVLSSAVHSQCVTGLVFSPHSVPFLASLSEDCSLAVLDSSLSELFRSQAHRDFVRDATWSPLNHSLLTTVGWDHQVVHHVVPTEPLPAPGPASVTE

`CC(=O)N1CC2(CC(Nc3ccc4c(c3)C(=O)N(C[C@H](O)CN3CCc5ccccc5C3)CC43CC3)C2)C1` [Example 10, (R)-7′-((2-Acetyl-2-azaspiro[3.3]hept-6-yl)amino)-2′-(3-(3,4-dihydroisoquinolin-2(1H)-yl)-2-hydroxypropyl)-2′,3′-dihydro-1′H-spiro[cyclopropane-1,4′-isoquinolin]-1′-one]: the IC50 was found to be 2660 nM.
